Source: patent US7700609B2, “Compositions useful as inhibitors of protein kinases” (Vertex Pharmaceuticals Incorporated, priority 2003, dated 2010)

How the values were obtained:
[1] = molecular target: T1, Itk (Homo sapiens, UniProt Q08881); test: Itk inhibition assay: Alphascreen (Method B); format: biochemical; settings: 100 μM ATP
T1 sequence (Q08881 1-620): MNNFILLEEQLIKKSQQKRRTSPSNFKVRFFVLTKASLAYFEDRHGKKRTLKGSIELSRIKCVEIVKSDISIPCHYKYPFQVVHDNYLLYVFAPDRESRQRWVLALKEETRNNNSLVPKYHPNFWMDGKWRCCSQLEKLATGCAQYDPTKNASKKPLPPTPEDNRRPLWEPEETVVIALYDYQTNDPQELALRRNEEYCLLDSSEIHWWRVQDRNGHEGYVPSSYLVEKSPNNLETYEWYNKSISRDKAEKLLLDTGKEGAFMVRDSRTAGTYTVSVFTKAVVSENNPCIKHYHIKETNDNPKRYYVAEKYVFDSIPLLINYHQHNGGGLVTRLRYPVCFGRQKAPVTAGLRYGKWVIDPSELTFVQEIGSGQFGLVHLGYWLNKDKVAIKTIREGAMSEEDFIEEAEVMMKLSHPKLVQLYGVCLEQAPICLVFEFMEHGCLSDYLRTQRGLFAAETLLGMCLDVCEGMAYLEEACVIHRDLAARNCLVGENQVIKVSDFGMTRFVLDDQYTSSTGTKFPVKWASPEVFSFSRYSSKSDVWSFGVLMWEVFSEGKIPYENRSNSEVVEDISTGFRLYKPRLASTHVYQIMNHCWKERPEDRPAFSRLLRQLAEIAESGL
Experimental: (§1) The compounds of the present invention were evaluated as inhibitors of human Itk kinase using either a radioactivity-based, spectrophotometric or alphascreen assay.
Assays were carried out in a mixture of 20 mM MOPS (pH 7.0), 10 mM MgCl2, 0.1% BSA and 1 mM DTT. Final substrate concentrations in the assay were 100 μM ATP (Sigma Chemicals) and 2 μM peptide (Biotinylated SAM68 Δ332-443). Assays were carried out at 25° C. and in the presence of 10 nM Itk. An assay stock buffer solution was prepared containing all of the reagents listed above, with the exception of ATP and the test compound of interest. 25 μL of the stock solution was placed in each well of a 96 well plate followed by 1 μL of DMSO containing serial dilutions of the test compound (typically starting from a final concentration of 15 μM) in duplicate (final DMSO concentration 2%). The plate was preincubated for 10 minutes at 25° C. and the reaction initiated by addition of 25 μL ATP (final concentration 100 μM). Background counts were determined by the addition of 5 μL 500 mM EDTA to control wells containing assay stock buffer and DMSO prior to initiation with ATP. The reaction was stopped after 30 minutes by diluting the reaction 225-fold into MOPS buffer (20 mM MOPS (pH 7.0), 1 mM DTT, 10 mM MgCl2, 0.1% BSA) containing 50 mM EDTA to bring the final concentration of peptide to 9 nM.
AlphaScreen™ reagents were prepared according to the manufacturers instructions (AlphaScreen™ phosphotyrosine (P-Tyr-100) assay kit, PerkinElmer catalogue number 6760620C). Under subdued lighting, 20 μL of AlphaScreen™ reagents were placed in each well of a white half area 96 well plate (Corning Inc.—COSTAR 3693) with 30 μL of the stopped, diluted kinase reactions. Plates were incubated in the dark for 60 minutes prior to reading on a Fusion Alpha plate reader (PerkinElmer).
After removing mean background values for all of the data points, Ki(app) data were calculated from non-linear regression analysis using the Prism software package (GraphPad Prism version 3.0cx for Macintosh, GraphPad Software, San Diego Calif., USA).

[2] = molecular target: T1, Itk; test: Itk inhibition assay: radioactivity-based (Method A); format: biochemical; settings: 15 μM ATP, read-out: IC50 in the radioactive incorporation assay (Method A)
Experimental: as §1
Assays were carried out in a mixture of 100 mM HEPES (pH 7.5), 10 mM MgCl2, 25 mM NaCl, 0.01% BSA and 1 mM DTT. Final substrate concentrations were 15 μM [γ-^33P]ATP (400 μCi ^33P ATP/μmol ATP, Amersham Pharmacia Biotech/Sigma Chemicals) and 2 μM peptide (SAM68 protein Δ332-443). Assays were carried out at 25° C. in the presence of 30 nM Itk. An assay stock buffer solution was prepared containing all of the reagents listed above, with the exception of ATP and the test compound of interest. 50 μL of the stock solution was placed in a 96 well plate followed by addition of 1.5 μL of DMSO stock containing serial dilutions of the test compound (typically starting from a final concentration of 15 μM with 2-fold serial dilutions) in duplicate (final DMSO concentration 1.5%). The plate was pre-incubated for 10 minutes at 25° C. and the reaction initiated by addition of 50 μL [γ-^33P]ATP (final concentration 15 μM).
The reaction was stopped after 10 minutes by the addition of 50 μL of a TCA/ATP mixture (20% TCA, 0.4 mM ATP). A Unifilter GF/C 96 well plate (Perkin Elmer Life Sciences, Cat no. 6005174) was pretreated with 50 μL Milli Q water prior to the addition of the entire reaction mixture (150 μL). The plate was washed with 200 μL Milli Q water followed by 200 μL of a TCA/ATP mixture (5% TCA, 1 mM ATP). This wash cycle was repeated a further 2 times. After drying, 30 μL Optiphase ‘SuperMix’ liquid scintillation cocktail (Perkin Elmer) was added to the well prior to scintillation counting (1450 Microbeta Liquid Scintillation Counter, Wallac).
IC50 data were calculated from non-linear regression analysis of the initial rate data using the Prism software package (GraphPad Prism version 3.0cx for Macintosh, GraphPad Software, San Diego Calif., USA).

Ki [1] [µM] | IC50 [2] [µM] | SMILES
< 1 | – | CC(C)(C)C(=O)OCc1nc2ccc3cnc(Nc4cccc(S(N)(=O)=O)c4)nc3c2s1 [II-36]
< 1 | – | CC(C)(C)OC(=O)NC1CCN(C(=O)c2cc3c(ccc4cnc(Nc5cccc(S(N)(=O)=O)c5)nc43)s2)CC1 [Compound V-46]
< 1 | – | CNCCNC(=O)c1cc2c(ccc3cnc(Nc4cccc(S(N)(=O)=O)c4)nc32)s1 [Compound V-43]
< 1 | – | CC(C)(C)OC(=O)N1CCN(C(=O)c2cc3c(ccc4cnc(Nc5cccc(S(N)(=O)=O)c5)nc43)s2)CC1 [Compound V-38]
< 1 | – | NS(=O)(=O)c1cccc(Nc2ncc3ccc4sc(C(=O)N5CCCCC5)cc4c3n2)c1 [Compound V-36]
< 1 | – | CN1CCN(C(=O)c2cc3c(ccc4cnc(Nc5ccccc5)nc43)s2)CC1 [Compound V-50]
< 1 | – | NS(=O)(=O)c1cccc(Nc2ncc3ccc4nc(C(=O)N5CCNCC5)sc4c3n2)c1 [II-13]
– | < 1 | COc1ccc(OC)c(-c2cc3c(s2)CCc2cnc(Nc4cccc(S(N)(=O)=O)c4)nc2-3)c1 [Compound I-20]
– | < 1 | NS(=O)(=O)c1cccc(Nc2ncc3c(n2)-c2cc(-c4ccccc4O)sc2CC3)c1 [Compound I-27]
< 1 | – | Cc1nc2c(s1)-c1nc(Nc3cccc(S(N)(=O)=O)c3)ncc1CC2 [III-4]
– | < 1 | NS(=O)(=O)c1cccc(Nc2ncc3c(n2)-c2ccsc2CC3)c1 [Compound I-21]
– | < 1 | NS(=O)(=O)c1cccc(Nc2ncc3c(n2)-c2cc(-c4cccs4)sc2CC3)c1 [Compound I-8]
– | < 1 | COc1cccc(-c2cc3c(s2)CCc2cnc(Nc4cccc(S(C)(=O)=O)c4)nc2-3)c1 [Compound I-24]
– | < 1 | COc1cccc(-c2cc3c(s2)CCc2cnc(Nc4cccc(S(N)(=O)=O)c4)nc2-3)c1OC [Compound I-17]
– | < 1 | NS(=O)(=O)c1cccc(Nc2ncc3c(n2)-c2cc(-c4ccccc4)sc2CC3)c1 [Compound I-1]
< 1 | – | CN1CCN(C(=O)c2cc3c(ccc4cnc(Nc5cccc(S(N)(=O)=O)c5)nc43)s2)CC1 [Compound V-40]
– | < 1 | Nc1cccc(-c2cc3c(s2)CCc2cnc(Nc4cccc(S(N)(=O)=O)c4)nc2-3)c1 [Compound I-10]
< 1 | – | NCCCNC(=O)c1cc2c(ccc3cnc(Nc4cccc(S(N)(=O)=O)c4)nc32)s1 [Compound V-45]
< 1 | – | Cc1nc2ccc3cnc(Nc4cccc(S(N)(=O)=O)c4)nc3c2s1 [II-35]
– | < 1 | NS(=O)(=O)c1cccc(Nc2ncc3c(n2)-c2cc(-c4cccc([N+](=O)[O-])c4)sc2CC3)c1 [Compound I-13]
– | < 1 | COc1cccc(OC)c1-c1cc2c(s1)CCc1cnc(Nc3cccc(S(N)(=O)=O)c3)nc1-2 [Compound I-14]
< 1 | – | NS(=O)(=O)c1cccc(Nc2ncc3ccc4sc(C(=O)N5CCOCC5)cc4c3n2)c1 [Compound V-37]
< 1 | – | CN1CCC(Nc2nc3c(s2)-c2nc(Nc4cccc(S(N)(=O)=O)c4)ncc2CC3)CC1 [III-35]
< 1 | – | CN(CCNC(=O)c1cc2c(ccc3cnc(Nc4cccc(S(N)(=O)=O)c4)nc32)s1)C(=O)OC(C)(C)C [Compound V-41]
– | < 1 | COc1ccccc1-c1cc2c(s1)CCc1cnc(Nc3cccc(S(N)(=O)=O)c3)nc1-2 [Compound I-9]

Ki [1] [µM] | IC50 [2] [µM] | SMILES
< 1 | – | NS(=O)(=O)c1cccc(Nc2ncc3c(n2)-c2sc(N4CCCCC4)nc2CC3)c1 [III-34]
< 1 | – | CN1CCN(c2nc3c(s2)-c2nc(Nc4cccc(S(N)(=O)=O)c4)ncc2CC3)CC1 [III-39]
< 1 | – | CC1(C)Cc2cnc(Nc3cccc(S(N)(=O)=O)c3)nc2-c2ccsc21 [Compound I-41]
– | < 1 | NS(=O)(=O)c1cccc(Nc2ncc3c(n2)-c2cc(-c4cccnc4)sc2CC3)c1 [Compound I-3]
< 1 | – | NC1CCN(C(=O)c2cc3c(ccc4cnc(Nc5ccccc5)nc43)s2)C1 (centres unmarked) [Compound V-54]
< 1 | – | NC1CCN(C(=O)c2cc3c(ccc4cnc(Nc5cccc(S(N)(=O)=O)c5)nc43)s2)C1 (centres unmarked) [Compound V-49]
< 1 | – | CCN(CC)c1nc2c(s1)-c1nc(Nc3cccc(S(N)(=O)=O)c3)ncc1CC2 [III-33]
< 1 | – | NS(=O)(=O)c1cccc(Nc2ncc3ccc4sc(C(=O)N5CCNCC5)cc4c3n2)c1 [Compound V-4]
< 1 | – | Nc1cccc(Nc2ncc3ccc4sc(C(=O)N5CCOCC5)cc4c3n2)c1 [Compound V-51]
– | < 1 | COc1ccc(-c2cc3c(s2)CCc2cnc(Nc4cccc(S(N)(=O)=O)c4)nc2-3)cc1 [Compound I-11]
< 1 | – | COc1cccc(-c2cc3c(s2)CCc2cnc(Nc4cccc(NC(C)=O)c4)nc2-3)c1 [Compound I-36]
< 1 | – | NS(=O)(=O)c1cccc(Nc2ncc3ccc4nc(N5CCCCC5)sc4c3n2)c1 [II-39]
< 1 | – | O=C(c1cc2c(ccc3cnc(Nc4ccccc4)nc32)s1)N1CCOCC1 [Compound V-52]
< 1 | – | Cc1nc2c(s1)CCc1cnc(Nc3cccc(S(N)(=O)=O)c3)nc1-2 [IV-4]
< 1 | – | CC(C)(C)OC(=O)NCCCNC(=O)c1cc2c(ccc3cnc(Nc4cccc(S(N)(=O)=O)c4)nc32)s1 [Compound V-39]
< 1 | – | NC1CCN(C(=O)c2cc3c(ccc4cnc(Nc5cccc(S(N)(=O)=O)c5)nc43)s2)CC1 [Compound V-48]
< 1 | – | CN(C)/C=N/S(=O)(=O)c1cccc(Nc2ncc3c(n2)-c2sc(N4CCN(C)CC4)nc2CC3)c1 [III-40]
< 1 | – | NS(=O)(=O)c1cccc(Nc2ncc3ccc4nc(N5CCOCC5)sc4c3n2)c1 [II-37]
< 1 | – | CCN(CC)c1nc2ccc3cnc(Nc4cccc(S(N)(=O)=O)c4)nc3c2s1 [II-38]
< 1 | – | NS(=O)(=O)c1cccc(Nc2ncc3c(n2)-c2sc(N4CCOCC4)nc2CC3)c1 [III-32]
< 1 | – | CC(C)(C)OC(=O)NC1CCN(C(=O)c2cc3c(ccc4cnc(Nc5cccc(S(N)(=O)=O)c5)nc43)s2)C1 (centres unmarked) [Compound V-47]
< 1 | – | NS(=O)(=O)c1cccc(Nc2ncc3c(n2)-c2sc(CO)nc2CC3)c1 [III-38]
< 1 | – | CN(C)CCNC(=O)c1cc2c(ccc3cnc(Nc4cccc(S(N)(=O)=O)c4)nc32)s1 [Compound V-42]
< 1 | – | Nc1cccc(Nc2ncc3ccc4sccc4c3n2)c1 [II-34]
< 1 | – | CC(C)(C)C(=O)OCc1nc2c(s1)-c1nc(Nc3cccc(S(N)(=O)=O)c3)ncc1CC2 [III-31]
